# Assay results published in US20030232743A1, “Compositions and methods for darkening the skin” (priority 2002, published 2003).
# Tested on: Type IV pigmented epidermal equivalents (SkinEthic reconstructed human epidermis; normal human keratinocytes and melanocytes)
# Experiment: Darkening in pigmented epidermal equivalents (DOPA and Fontana-Mason staining)
# Assay type: cell-based
# Design: key to Score DOPA staining (tyrosinase activity): 0: No change in DOPA staining and in melanin deposition; 1: Minimal increase in DOPA staining and/ or in pigment deposition; 2: Increased DOPA staining and/ or in pigment deposition; 3: Strong increase in DOPA staining and/ or in pigment deposition
# Conditions: for Score F & M staining (Pigment deposition) / Score DOPA staining (tyrosinase activity): peptides at 100 μM in PBS, treated three or five days, harvested fourth or sixth day; for Score F & M staining (Pigment deposition): sectioned equivalents F&M stained; for Score DOPA staining (tyrosinase activity): whole equivalents DOPA stained; for Overall change of pigmentation (darkening), in words: peptides at 100 μM, compared with UVB irradiation (0.10 J/cm^2)
# Method: Peptide 1 and Peptide 2 were tested for their ability to induce darkening in pigmented epidermal equivalents. The pigmented epidermal equivalents contain human normal melanocytes, together with normal, human-derived epidermal keratinocytes, which have been cultured to form a multi-layered, highly differentiated model of the human epidermis. Type IV pigmented epidermal equivalents (consists of normal human keratinocytes pooled from variety of phototype skins and normal human melanocytes derived from type IV phototype skin) were treated with test compounds for three or five days and samples were harvested on the fourth or sixth day of the study. The harvested equivalents were stained with DOPA (a substrate for tyrosinase) or with Fontana-Mason (F&M) (Sheenan D C, Hrapckak B B, eds: Theory and practice of Histo-Thchnology (St Louis: C V Mosby, 1980) pp 223-277). F&M staining identifies silver nitrate reducing activity, which, in skin, identifies melanin.
# The Epidermal equivalents used were SkinEthic® reconstructed human epidermis from SkinEthic™ Laboratory (Nice, France). UV irradiation was performed with a UVB FS light source in an exposure chamber, with plate covers removed and Phosphate—buffered saline (PBS, from Gibco-BRL, Gaithersburg, Md.) present in the lower chamber. UVB intensity was measured with a UVX radiometer (UVP Inc., San Gabriel, Calif.). Equivalents were treated with 0.1-0.12 J/cm2. […] The peptides were assayed at 100 μM, and were dissolved in PBS.
# On the fourth or sixth day of the study, the equivalents were fixed, sectioned and F&M stained, or they were DOPA stained as whole without sectioning, using standard techniques. Images of stained whole or sectioned equivalents were obtained and analyzed with Image Pro Plus 3.0 software (Media Cybernetics, Silver Spring, Md.). Parameters measured were surface area of stained material within melanocyte and keratinocyte and the total surface area of the cells in culture. In all experiments there was no difference between PBS-treated cells and untreated controls. At least three sections per equivalent, three equivalents per experiment were processed. DOPA-stained epidermal equivalents were evaluated for the change in tyrosinase activity. F&M-stained histological sections were evaluated for the change in pigment deposition. Due to the low content of melanin within the equivalent, it was not possible to quantify the level of pigment within melanocytes in F&M stained sections by image analysis. Therefore, we evaluate the pigment change using the scale defined in Table 1.
Score DOPA staining (tyrosinase activity),Structure (SMILES),Score F & M staining (Pigment deposition),"Overall change of pigmentation (darkening), in words"
3,COc1ccc(CN[C@@H](CCCN/C(N)=N/[N+](=O)[O-])C(=O)N[C@@H](CC(C)C)C(N)=O)cc1 [Peptide 1],1-2,darkening levels similar to those produced by UVB irradiation
1-2,CC(C)C[C@H](NC(=O)[C@H](CCCN/C(N)=N/[N+](=O)[O-])NCc1ccc(OC(F)(F)F)cc1)C(N)=O [Peptide 2],1-2,able to enhance pigment production
